Measurements as given in publication PMC3183052, “Immunoprotectivity of HLA-A2 CTL Peptides Derived from Respiratory Syncytial Virus Fusion Protein in HLA-A2 Transgenic Mouse” (PLoS ONE, 2011).

Columns and labels:
[1] = target: T1, HLA-A*0201 (Homo sapiens, UniProt P04439, D140Y/D185E/D98H/E176V/E277Q/G131W/G231S/I119V/I121R/I166T/I218V/L300P/L318F/N151K/N90K/P208A/P217A/Q86G/Q94H/R138H/R169H/T345S); test: T2 cell-stabilization assay (T2-binding); details: T2 cells 5×10^5, peptide 50 µg/mL + β2-microglobulin 5 µg/mL, 28°C 16–18 h, then brefeldin A 10 µg/mL 37°C 3 h; FITC anti-HLA-A2, flow cytometry; MFI relative to negative control HCV C55-74 (set as 1)
T1 construct: Human T2 cells (purchased from the American Type Culture Collection, ATCC) (ATCC No. CRL-1992) expressing the HLA-A*0201 gene; endogenous in cells; host or cells: human T2 cells (ATCC CRL-1992)
Description: T2 cells (5×10^5) cultured in 96-well U-bottom plates were incubated with the individual 9-mer synthetic peptides (50 µg/mL) and β2-microglobulin (5 µg/mL; Sigma-Aldrich) at 28°C for 16–18 hours. Subsequently, brefeldin A (10 µg/mL) was added and the cells were incubated at 37°C for another 3 hours, then washed and stained with fluorescence isothiocyanate (FITC)-conjugated mouse anti-human HLA-A2 antibody (SeroTec). Peptide-loaded T2 cells were acquired and analyzed on the FACScan flow cytometer using CellQuest software (Becton Dickinson). GLC-9 peptide was used as positive control (PC). The mean fluorescence intensity (MFI) represents the binding affinity of each peptide compared to MFI (set as MFI = 1) obtained from negative control (NC), which is T2 cells loaded with HCV peptide C55-74.
Twenty-five 9-mer synthetic peptides derived from the RSV F glycoprotein sequence presumed to encompass HLA-A*0201 binding motifs were synthesized (Table 1). Each was tested for its ability to bind HLA-A*0201 molecules by T2 cell-based binding assay (data not shown). The relative mean fluorescence intensity (MFI) obtained from the positive control (PC) peptide derived from Epstein-Barr virus capsid protein (GLC-9, a previously defined HLA-A*0201-restricted CTL epitope) was twofold (MFI = 1.96) compared to the baseline MFI = 1 obtained from the negative control (NC) treated with an unrelated peptide HCV C55-74 (a C57BL/6-specific CD4 epitope). […] The remaining peptides had no detectable binding to the HLA-A*0201 molecules. Apparently, the different MFIs generated by binding of RSV F-derived peptides to HLA-A*0201 reflects on the binding specificity of different peptides to a given HLA molecule.

[2] = tested on: splenocytes from HLA-A*0201 transgenic C57BL/6 mice; test: IFN-γ ELISPOT of splenocytes restimulated with peptide; type: cell-based, mouse; details: for IFN-γ ELISPOT, RSV: splenocytes of HLA-Tg B6 mice primed and boosted i.n. with 10^4 pfu RSV-B1; for IFN-γ ELISPOT, RSV / IFN-γ ELISPOT, rAd-F0: restimulated with 2 µg peptide, representative of two experiments, five mice per group; for IFN-γ ELISPOT, rAd-F0: splenocytes of HLA-Tg B6 mice primed and boosted i.n. with 10^7 pfu rAd-F0; for IFN-γ level in restimulated splenocytes (ELISPOT, text grading): splenocytes of rAd-F0- or RSV B1-primed and boosted HLA-Tg B6 mice, high = over 100 spots, moderate = over 50 spots
Description: (§1) To screen the immunodominance of epitopic peptide in the induction of RSV-F specific Th1/Th2 expression, HLA-A*0201 transgenic C57BL/6 mice were anesthetized with isoflurane and immunized with 1×10^7 pfu/50 µL of rAd-F0 or rAd-LacZ or 1×10^4 live RSV B1 via the intranasal (i.n.) route. Twenty days later, the mice were given booster immunization i.n. with the same dose. After 10 days of boost, mice were sacrificed and splenocytes were isolated for the cytokine ELISPOT assay. For peptide-based vaccination, transgenic mice were immunized subcutaneously (s.c.) with 50 µg of the individual synthetic peptides emulsified in 25 µL of incomplete Freund's adjuvant (IFA) (Sigma-Aldrich) and then boosted after 10 days s.c. with the same dose of the respective peptides mixed with IFA. Mice were sacrificed 7 days after the booster and splenocytes were isolated for in vitro peptide-restimulation. For challenge studies, 10^7 pfu of live RSV-B1 was administered i.n. seven days after the booster immunization with peptide vaccines. Mice were sacrificed on day 4 post-challenge and the lung tissues were collected and subjected to further analysis by flow cytometry, ELISA, CTL assay and immunohistochemistry. Mice body weight was monitored daily.
(§2) […] RBC-free splenocyte suspensions prepared from the individual mice were seeded in individual wells of 96-well filtration plates (Millipore) precoated with capturing monoclonal antibodies for murine IL-2, IL-4 or IFN-γ (0.5 µg/ well) (eBioscience) and blocked with conditioned medium (CM) for 1 hour at room temperature. The splenocytes were added with the individual RSV F 9-mer synthetic peptides (2 µg each) or GLC-9 dissolved in CM (100 µL). The splenocytes added with Con A (10 µg/mL) were used as positive control. Unstimulated splenocytes were used as negative control. The plates were kept in a 37°C incubator equilibrated with 5% CO2 for 48 hours. The individual wells of the ELISPOT plates were washed three times with washing buffer (0.05% tween20 in PBS, PBS-T), and then 0.2 µg of the corresponding biotinylated detection monoclonal antibodies specific for IL-2, IL-4 and IFN-γ were added to detect the respective cytokines. After 2 hours of incubation at room temperature, the plates were washed and 100 µl of streptavidin-alkaline phosphatase (1∶ 250 dilution) was added to the individual wells, and the plates were incubated at room temperature for 45 minutes. Finally, the plates were washed four times with the wash buffer, and 100 µl of AEC (3-amine-9-ethylcarbazole, Sigma-Aldrich) substrate was added to each well and allowed to react for 30 minutes at room temperature in the dark. The plates were then washed with water, air-dried overnight, and the spots per well were scored using the immunospot counting reader (C.T.L. IMMUNOSPOT, CELLULAR TECHNOLOGY LTD). Results were expressed as the number of cytokine-secreting cells per 5×10^5 splenocytes seeded in the initial culture.
(§3) Figure 1 Induction of IFN-γ and IL-2 in splenocytes from RSV F peptide immunized HLA-A*0201 transgenic mice upon secondary recall. Splenocytes harvested on day 30 from HLA-A-Tg B6 mice primed and boosted at 20 days interval intranasally with 10^7 pfu of rAd-F0 (□) or 10^4 pfu of RSV-B1 (▪)were restimulated with 2 µg of the individual RSV F peptide or 10 µg/ml Con A for 5 days in the presence of murine IL-2 . After stimulation, 5×10^5 splenocytes were seeded to anti-IFN-γ (A) or anti-IL-2 (B) capture antibody coated ELISPOT plates for 2 days for ELISPOT assay as described in Materials and Methods. Cytokine-positive immunospots were developed and the results are expressed as the number of immunospots +/−2 standard deviations for each experimental group. Data is representative of results derived from two independent experiments, each with five mice per group.

[3] = tested on: splenocytes from HLA-A*0201 transgenic C57BL/6 mice; test: IL-2 ELISPOT of splenocytes restimulated with peptide; type: cell-based, mouse; details: restimulated with 2 µg peptide, representative of two experiments, five mice per group; for IL-2 ELISPOT, RSV: splenocytes of HLA-Tg B6 mice primed and boosted i.n. with 10^4 pfu RSV-B1; for IL-2 ELISPOT, rAd-F0: splenocytes of HLA-Tg B6 mice primed and boosted i.n. with 10^7 pfu rAd-F0
Description: as §1, §2, §3

[4] = tested on: splenocytic CD4+ T cells; test: CFSE proliferation of CD4+ T cells after in vitro peptide restimulation; type: cell-based, mouse; details: mice immunized s.c. twice with 50 µg peptide in IFA; splenocytes restimulated with 10 µg/mL peptide for 8 days
Description: (§4) To screen the immunodominance of epitopic peptide in the induction of RSV-F specific Th1/Th2 expression, HLA-A*0201 transgenic C57BL/6 mice were anesthetized with isoflurane and immunized with 1×10^7 pfu/50 µL of rAd-F0 or rAd-LacZ or 1×10^4 live RSV B1 via the intranasal (i.n.) route. Twenty days later, the mice were given booster immunization i.n. with the same dose. After 10 days of boost, mice were sacrificed and splenocytes were isolated for the cytokine ELISPOT assay. […] Mice body weight was monitored daily.
(§5) The splenocytes were isolated, labeled with 5-(6)-carboxyfluorescein diacetate succinimidyl ester (CFSE) (Sigma-Aldrich) and stimulated in vitro with 10 µg/mL of the synthetic peptides for 4 or 8 days. Proliferation of splenocytic CD4^+ and CD8^+ T cells was analyzed by flow cytometry (BD FACSCalibur) using PE-Cy5-labeled specific antibody against CD4 (eBioscience) or CD8 (eBioscience), respectively. Cell division index (CDI), a ratio of CFSE-diluted CD4^+ or CD8^+ T cells stimulated by peptide to CFSE-diluted unstimulated CD4^+ or CD8^+ T cells, was calculated as shown below; [drawing 1] […]
(§6) Figure 2 Epitope-specific CD4^+ and CD8^+ T-cell activation in peptide-immunized HLA-A*0201 transgenic mice. […] Proliferation of CD4^+ (A) or CD8^+ (B) lymphocytes in response to the different CD8 epitopes was analyzed by flow cytometry using anti-CD4 or CD8 antibodies conjugated with PE-Cy5. […]

[5] = tested on: splenocytic CD8+ T cells; test: CFSE proliferation of CD8+ T cells after in vitro peptide restimulation; type: cell-based, mouse; details: mice immunized s.c. twice with 50 µg peptide in IFA; splenocytes restimulated with 10 µg/mL peptide for 8 days
Description: as §4, §5, §6

| Substance | T2-binding Ratio of MFI [1] | IFN-γ ELISPOT, RSV [2] | IFN-γ ELISPOT, rAd-F0 [2] | IL-2 ELISPOT, RSV [3] | IL-2 ELISPOT, rAd-F0 [3] | proliferation of CD4+ T cells (cell division index) [4] | proliferation of CD8+ T cells (cell division index) [5] | IFN-γ level in restimulated splenocytes (ELISPOT, text grading) [2] |
| --- | --- | --- | --- | --- | --- | --- | --- | --- |
| KIMTSKTDV [peptide 17, HLA-A*0201-restricted 9-mer synthetic peptide from F protein of RSV-B1 strain] | 0.95 | 2.5 cytokine-secreting cells per 5×10^5 splenocytes | 24.5 cytokine-secreting cells per 5×10^5 splenocytes | 6.5 cytokine-secreting cells per 5×10^5 splenocytes | 24.5 cytokine-secreting cells per 5×10^5 splenocytes | insignificant proliferation | could not induce proliferation | – |
| 12: HLA-A*0201-restricted 9-mer synthetic peptide from F protein of RSV-B1 strain (VLTSKVLDL) [compound 12] | 0.99 | 116.5 cytokine-secreting cells per 5×10^5 splenocytes | 95.5 cytokine-secreting cells per 5×10^5 splenocytes | 36 cytokine-secreting cells per 5×10^5 splenocytes | 44 cytokine-secreting cells per 5×10^5 splenocytes | – | – | over 100 spots |
| 21: HLA-A*0201-restricted 9-mer synthetic peptide from F protein of RSV-B1 strain (IIIVIIVIL) [compound 21] | 0.88 | 80 cytokine-secreting cells per 5×10^5 splenocytes | 16.5 cytokine-secreting cells per 5×10^5 splenocytes | 21 cytokine-secreting cells per 5×10^5 splenocytes | 2.5 cytokine-secreting cells per 5×10^5 splenocytes | – | – | over 50 spots |
